From patent publication US20250268903A1, “RXFP1 AGONISTS” (BRISTOL-MYERS SQUIBB COMPANY, priority 2021, published 2025)

biological target: T1, human RXFP1 (Homo sapiens, UniProt Q9HBX9); experiment: hRXFP1 HEK293 cAMP assay (HTRF); type: cell-based; conditions: HEK293 cells stably expressing human RXFP1, 30 min at room temperature
T1 construct: expressed in transfected cells
T1 sequence (Q9HBX9 1-757): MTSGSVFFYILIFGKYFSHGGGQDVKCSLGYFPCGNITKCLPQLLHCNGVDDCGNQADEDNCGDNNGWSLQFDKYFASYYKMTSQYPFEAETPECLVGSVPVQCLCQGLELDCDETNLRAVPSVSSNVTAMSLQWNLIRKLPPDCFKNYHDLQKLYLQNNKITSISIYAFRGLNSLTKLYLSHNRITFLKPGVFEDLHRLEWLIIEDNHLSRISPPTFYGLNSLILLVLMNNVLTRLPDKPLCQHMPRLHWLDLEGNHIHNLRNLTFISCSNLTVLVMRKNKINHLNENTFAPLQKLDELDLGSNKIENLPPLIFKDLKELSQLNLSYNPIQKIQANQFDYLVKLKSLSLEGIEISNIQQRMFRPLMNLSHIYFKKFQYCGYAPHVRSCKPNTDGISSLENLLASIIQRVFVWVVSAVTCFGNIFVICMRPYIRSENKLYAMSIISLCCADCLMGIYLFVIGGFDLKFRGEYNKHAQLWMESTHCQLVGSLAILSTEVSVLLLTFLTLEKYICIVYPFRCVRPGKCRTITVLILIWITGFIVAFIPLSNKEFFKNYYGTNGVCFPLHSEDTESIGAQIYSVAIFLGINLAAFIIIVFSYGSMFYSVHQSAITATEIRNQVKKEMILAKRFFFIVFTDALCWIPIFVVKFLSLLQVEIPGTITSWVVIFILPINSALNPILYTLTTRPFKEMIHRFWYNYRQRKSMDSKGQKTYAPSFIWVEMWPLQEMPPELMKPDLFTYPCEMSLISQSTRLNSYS
Procedure: RXFP1 Cyclic Adenosine Monophosphate (cAMP) Assays. […] Cells were dissociated and suspended in assay buffer. The assay buffer was HBSS buffer (with calcium and magnesium) containing 20 mM HEPES, 0.05% BSA, and 0.5 mM IBMX. Cells (3000 cells per well, except 1500 cell per well for HEK293 cells stably expressing human RXFP1) were added to 384-well Proxiplates (Perkin-Elmer). Cells were immediately treated with test compounds in DMSO (2% final) at final concentrations in the range of 0.010 nM to 50 μM. Cells were incubated for 30 min at room temperature. The level of intracellular cAMP was determined using the HTRF HiRange cAMP assay reagent kit (Cisbio) according to manufacturer's instructions. Solutions of cryptate conjugated anti-cAMP and d2 fluorophore-labelled cAMP were made in a supplied lysis buffer separately. Upon completion of the reaction, the cells were lysed with equal volume of the d2-cAMP solution and anti-cAMP solution. […] The potency and activity of a compound to […] cAMP production was then determined by fitting to a 4-parametric logistic equation from a plot of cAMP level versus compound concentrations.

Row | Compound | EC50
1 | COc1ccc(CCCNC(=O)OC(C)(C)C)cc1C(=O)N[C@@H]1C2CCC(/C2=C/C(F)(F)F)[C@@H]1C(=O)Nc1ccc(F)c(C(F)(F)F)c1 (some centres unmarked) [Example 109] | 2080 nM
2 | COc1ccc(C#C[C@@H](C)O)cc1C(=O)N[C@@H]1C2CCC(/C2=C/C2CC2)[C@@H]1C(=O)Nc1ccc(F)c(C(F)(F)F)c1 (stereo partly drawn) [Example 73, (2S,3R,7Z)-7-(cyclopropylmethyli-dene)-N-[4-fluoro-3-(trifluoromethyl)phe-nyl]-3-{5-[(3R)-3-hydroxybut-1-yn-1-yl]-2-methoxybenzamido} bicyclo[2.2.1]heptane-2-carboxamide] | 88 nM
3 | COc1ccc(CCCCCO)cc1C(=O)N[C@@H]1C2CCC(/C2=C/C(F)(F)F)[C@@H]1C(=O)Nc1ccc(F)c(C(F)(F)F)c1 (stereo partly drawn) [Example 97, (2S,3R,7Z)-N-[4-fluoro-3-(trifluoromethyl)phe-nyl]-3-[5-(5-hydroxypentyl)-2-methoxybenzamido]-7-(2,2,2-trifluoroethylidene)bi-cyclo[2.2.1]heptane-2-carboxamide] | 82 nM
4 | COc1ccc(CCCO)cc1C(=O)N[C@H]1[C@@H](C(=O)NCC(C)(C)C)[C@H]2CC[C@@H]1/C2=C\C1CC1 [Example 270, (1R,2S,3R,4R,7Z)-7-(cyclopropylmethyl-idene)-N-(2,2-dimethylpropyl)-3-[5-(3-hydroxypropyl)-2-methoxybenzamido] bicyclo[2.2.1]heptane-2-carboxamide] | 685 nM
5 | COc1ccc(CCCOc2ccncc2)cc1C(=O)NC1C2CCC(/C2=C/C(F)(F)F)[C@@H]1C(=O)Nc1ccc(F)c(C(F)(F)F)c1 (some centres unmarked) [Example 104] | 988 nM
6 | COc1ccc([C@H]2C[C@H](O)C2)cc1C(=O)NC1C2CCC(/C2=C/C(F)(F)F)[C@@H]1C(=O)Nc1ccc(F)c(C(F)(F)F)c1 (stereo partly drawn) [Example 145, (2S,3R,7Z)-N-[4-fluoro-3-(trifluoromethyl)phe-nyl]-3-{2-methoxy-5-[(1r,3r)-3-hydroxycyclobutyl]benzamido}-7-(2,2,2-trifluoroethylidene)bi-cyclo[2.2.1]heptane-2-carboxamide] | 84 nM
7 | COc1ccc(CC[C@@H](C)O)cc1C(=O)N[C@@H]1C2CCC(/C2=C/C(F)(F)F)[C@@H]1C(=O)Nc1ccc(F)c(C(F)(F)F)c1 (stereo partly drawn) [Example 93, (2S,3R,7Z)-N-[4-fluoro-3-(trifluoromethyl)phe-nyl]-3-{5-[(3R)-3-hydroxybutyl]-2-methoxybenzamido}-7-(2,2,2-trifluoroethylidene)bi-cyclo[2.2.1]heptane-2-carboxamide] | 248 nM
8 | COc1cc2c(cc1C(=O)N[C@H]1[C@@H](C(=O)Nc3ccc(F)c(C(F)(F)F)c3)[C@H]3CC[C@@H]1/C3=C\C(F)(F)F)CCC2 [Example 273, [(1R,2R,3S,4R,7Z)-3-{[4-fluoro~3-(trifluoromethyl)phenyl]carbamoyl}-7-(2,2,2-trifluoroethylidene)bicyclo[2.2.1]heptan-2-yl]-6-methoxy-2,3-dihydro-IH-indene-5-carboxamide] | 3440 nM
9 | COc1ccc(CCCNC[C@@H](O)C(F)(F)F)cc1C(=O)N[C@@H]1C2CCC(/C2=C/C(F)(F)F)[C@@H]1C(=O)Nc1ccc(F)c(C(F)(F)F)c1 (stereo partly drawn) [Example 119, (2S,3R,7Z)-N-[4-fluoro-3-(trifluoromethyl)phe-nyl]-3-[2-methoxy-5-(3-{[(2R)-3,3,3-trifluoro-2-hydroxypropyl]amino}propyl)benzamido]-7-(2,2,2-trifluoroethylidene)bi-cyclo[2.2.1]heptane-2-carboxamide] | 1800 nM
10 | COc1ccc(C(=O)N2CCC(S(C)(=O)=O)C2)cc1C(=O)N[C@H]1[C@@H](C(=O)Nc2ccc(F)c(C(F)(F)F)c2)[C@H]2CC[C@@H]1/C2=C\C1CC1 (stereo partly drawn) [Example 257, (1R,2S,3R,4R,7Z)-7-(cyclopropylmethyl-idene)-N-[4-fluoro-3-(trifluoromethyl)phenyl]-3-[5-(3-methanesulfonyl-pyrrolidine-1-carbonyl)-2-methoxybenzamido] bicyclo[2.2.1]heptane-2-carboxamide] | 90.8 nM
11 | COc1ccc(S(=O)(=O)N2CCN(C(=O)OC(C)(C)C)[C@H](CO)C2)cc1C(=O)N[C@H]1[C@@H](C(=O)Nc2ccc(F)c(C(F)(F)F)c2)[C@H]2CC[C@@H]1/C2=C\C(F)(F)F [Example 225, tert-butyl (2S)-4-(3-{[(1R,2R,3S,4R,7Z)-3-{[4-fluoro-3-(trifluoromethyl)phenyl]carbamoyl}-7-(2,2,2-trifluoroethylidene)bicyclo[2.2.1]heptan-2-yl]carbamoyl}-4-methoxy-benzenesulfonyl-2-(hydroxymethyl)piperazine-1-carboxylate] | 4270 nM
12 | COc1ccc(CCC(=O)N2CC[C@H](O)C2)cc1C(=O)N[C@@H]1C2CCC(/C2=C/C(F)(F)F)[C@@H]1C(=O)Nc1ccc(F)c(C(F)(F)F)c1 (stereo partly drawn) [Example 138, (2S,3R,7Z)-N-[4-fluoro-3-(trifluoromethyl)phe-nyl]-3-(5-{3-[(3S)-3-hydroxypyrrolidin-1-yl]-3-oxopropyl}-2-methoxybenzamido)-7-(2,2,2-trifluoroethylidene)bi-cyclo[2.2.1]heptane-2-carboxamide] | 428 nM
13 | COc1ccc(CCC(C)(C)O)cc1C(=O)NC1C2CCC(/C2=C/C2CCCOC2)[C@@H]1C(=O)Nc1ccc(F)c(C(F)(F)F)c1 (single isomer, unassigned) [Example 173, (7Z)-N-[4-fluoro-3-(trifluoromethyl)phe-nyl]-3-[5-(3-hydroxy-3-methylbutyl)-2-methoxybenzamido]-7-[(oxan-3-yl)methylidene]bicy-clo[2.2.1]heptane-2-carboxamide] | 186 nM
14 | COc1ccc(S(C)(=O)=O)cc1C(=O)N[C@@H]1C2CCC(C2=C(C)C)[C@@H]1C(=O)Nc1ccc(F)c(C(F)(F)F)c1 (stereo partly drawn) [Example 208, (2S,3R)-N-[4-fluoro-3-(trifluoromethyl)phenyl]-3-(5-methanesulfonyl-2-methoxybenzamido)-7-(propan-2-ylidene)bicyclo[2.2.1] heptane-2-carboxamide] | 2600 nM
15 | COc1ccc(CC2CCOCC2)cc1C(=O)NC1C2CCC(/C2=C/C(F)(F)F)[C@@H]1C(=O)Nc1ccc(F)c(C(F)(F)F)c1 (some centres unmarked) [Example 178, (7Z)-N-[4-fluoro-3-(trifluoromethyl)phe-nyl]-3-{2-methoxy-5-[(oxan-4-yl)methyl]benzamido}-7-(2,2,2-trifluoroethylidene)bi-cyclo[2.2.1]heptane-2-carboxamide] | 355 nM
16 | COc1ccc(COCC2CC2(F)F)cc1C(=O)N[C@@H]1C2CCC(/C2=C/C2CC2)[C@@H]1C(=O)Nc1ccc(F)c(C(F)(F)F)c1 (stereo partly drawn) [Example 15, (2S,3R,7Z)-7-(cyclopropylmethyli-dene)-3-(5-{[(2,2-difluorocyclopropyl)methoxy]methyl}-2-methoxybenzamido)-N-[4-fluoro-3-(trifluoromethyl)phe-nyl]bicyclo[2.2.1]hept-ane-2-carboxamide] | 36 nM
17 | COc1ccc(CCC(F)(F)F)cc1C(=O)NC1C2CCC(/C2=C/C(F)(F)F)[C@@H]1C(=O)Nc1ccc(F)c(C(F)(F)F)c1 (some centres unmarked) [Example 187, (7Z)-N-[4-fluoro-3-(trifluoromethyl)phe-nyl]-3-[2-methoxy-5-(3,3,3-trifluoropropyl)benz-amido]-7-(2,2,2-trifluoroethylidene)bi-cyclo[2.2.1]heptane-2-carboxamide] | 385 nM
